Literature values in patent US5747458A, “Urokinase receptor ligands” (Chiron Corporation, priority 1995, dated 1998).
pKd: −log10 of the molar value.

How the values were obtained:
[1] = target: uPA:uPAR interaction (Homo sapiens, UniProt Q03405)
[2] = target: uPAR (Homo sapiens, UniProt Q03405)
Chain of uPAR (Q03405 23-335, species assumed): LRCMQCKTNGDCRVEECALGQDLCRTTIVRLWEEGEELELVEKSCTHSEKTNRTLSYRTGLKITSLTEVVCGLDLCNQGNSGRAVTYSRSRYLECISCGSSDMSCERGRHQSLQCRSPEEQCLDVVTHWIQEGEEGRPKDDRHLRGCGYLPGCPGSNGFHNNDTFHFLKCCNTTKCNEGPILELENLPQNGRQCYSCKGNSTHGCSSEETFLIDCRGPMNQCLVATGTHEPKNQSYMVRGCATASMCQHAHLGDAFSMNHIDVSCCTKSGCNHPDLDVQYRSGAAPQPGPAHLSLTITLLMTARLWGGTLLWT

Chain of uPA:uPAR interaction (Q03405 23-305 limits assumed): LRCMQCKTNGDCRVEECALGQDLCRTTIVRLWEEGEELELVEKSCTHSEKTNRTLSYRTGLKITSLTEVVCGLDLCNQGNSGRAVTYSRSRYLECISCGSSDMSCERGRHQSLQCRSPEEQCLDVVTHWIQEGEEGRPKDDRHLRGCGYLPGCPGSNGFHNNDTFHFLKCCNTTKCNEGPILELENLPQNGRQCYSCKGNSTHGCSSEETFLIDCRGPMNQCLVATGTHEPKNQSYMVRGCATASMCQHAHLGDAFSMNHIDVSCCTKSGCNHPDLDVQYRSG

Molecule | effective concentration for inhibiting the uPA:uPAR interaction [1] | affinity relative to intact ATF (fold less) ([2]; compared with intact ATF) | pKd ([2]; read-out: affinity for uPAR)
O=S(=O)(O)c1cccc2cccc(Nc3ccccc3)c12 [8-anilinonaphthalene sulfonic acid] | effective only at micromolar concentrations |  | 
Cc1ccc(C(=O)Nc2ccc(S(=O)(=O)O)c3cc(S(=O)(=O)O)cc(S(=O)(=O)O)c23)cc1NC(=O)c1cccc(NC(=O)Nc2cccc(C(=O)Nc3cc(C(=O)Nc4ccc(S(=O)(=O)O)c5cc(S(=O)(=O)O)cc(S(=O)(=O)O)c45)ccc3C)c2)c1 [suramin] | effective only at micromolar concentrations |  | 
uPA12-32: critical binding domain alone, residues 12-32 of the EGF-like domain of uPA (DCLNGGTCVSNKYFSNIHWCN; UniProt P00749 32-52, looked up, fragment) |  | about 100 fold | 7.40
